ChEMBL document CHEMBL1909046, “DrugMatrix in vitro pharmacology data”

target: Mitogen-activated protein kinase 3 (Homo sapiens, UniProt P27361); assay: DRUGMATRIX: Protein Serine/Threonine Kinase, ERK1 enzyme inhibition (substrate: Myelin Basic Protein); design: species or system Escherichia coli; conditions: Not Active = under 50% inhibition at 10 µM
Sequence (P27361 whole entry): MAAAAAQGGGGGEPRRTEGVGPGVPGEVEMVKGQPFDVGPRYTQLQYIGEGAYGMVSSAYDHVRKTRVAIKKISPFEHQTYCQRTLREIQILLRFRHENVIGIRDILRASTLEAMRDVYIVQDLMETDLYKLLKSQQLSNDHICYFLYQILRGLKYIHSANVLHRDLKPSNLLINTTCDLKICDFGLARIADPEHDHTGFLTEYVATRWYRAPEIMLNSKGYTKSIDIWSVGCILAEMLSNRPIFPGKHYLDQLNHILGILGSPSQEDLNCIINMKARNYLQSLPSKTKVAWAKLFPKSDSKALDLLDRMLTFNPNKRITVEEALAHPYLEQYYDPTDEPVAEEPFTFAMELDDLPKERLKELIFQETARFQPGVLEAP

Row | Compound | IC50
1 | O=C1O[C@H]([C@@H](O)CO)C(O)=C1O [ASCORBIC ACID] | Not Active
2 | CC(C(=O)O)c1ccc2oc(-c3ccc(Cl)cc3)nc2c1 (configuration not stated) [BENOXAPROFEN] | Not Active
3 | COc1ccc2cc3[n+](cc2c1OC)CCc1cc2c(cc1-3)OCO2.[Cl-] [BERBERINE CHLORIDE] | Not Active
4 | O=C(O)CCNC(=O)c1ccccc1 [BETAMIPRON] | Not Active
5 | Cc1cc2c(OCC(CNC(C)(C)C)OC(=O)c3ccccc3)cccc2[nH]1 (configuration not stated) [BOPINDOLOL] | Not Active
6 | Brc1c(NC2=NCCN2)ccc2nccnc12 [BRIMONIDINE] | Not Active
7 | CN(C)[C@@H]1C(O)=C(C(N)=O)C(=O)[C@@]2(O)C(O)=C3C(=O)c4c(O)ccc(Cl)c4[C@@](C)(O)[C@H]3C[C@@H]12 [CHLORTETRACYCLINE] | Not Active

target: T1, Cholecystokinin receptor type A (Homo sapiens, UniProt P32238); type: cell membranes, Membrane; conditions: 1321-n1; further: in other assays of this panel Not Active means under 50% inhibition at 10 µM
T1 sequence (P32238 whole entry): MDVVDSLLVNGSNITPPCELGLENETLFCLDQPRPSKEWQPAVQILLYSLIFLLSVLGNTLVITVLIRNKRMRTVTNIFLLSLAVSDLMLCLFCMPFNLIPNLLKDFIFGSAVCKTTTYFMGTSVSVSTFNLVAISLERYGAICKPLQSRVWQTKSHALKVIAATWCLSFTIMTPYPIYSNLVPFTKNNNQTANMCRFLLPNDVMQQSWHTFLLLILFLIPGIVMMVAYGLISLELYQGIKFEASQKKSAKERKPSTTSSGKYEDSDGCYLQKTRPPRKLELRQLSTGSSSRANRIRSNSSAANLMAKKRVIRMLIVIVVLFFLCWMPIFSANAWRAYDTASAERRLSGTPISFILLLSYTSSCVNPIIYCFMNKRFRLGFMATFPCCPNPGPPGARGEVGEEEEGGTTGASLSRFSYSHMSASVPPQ

Row | Compound | IC50
8 | O=C1O[C@H]([C@@H](O)CO)C(O)=C1O [ASCORBIC ACID] | Not Active
9 | CC(C(=O)O)c1ccc2oc(-c3ccc(Cl)cc3)nc2c1 (configuration not stated) [BENOXAPROFEN] | Not Active
10 | COc1ccc2cc3[n+](cc2c1OC)CCc1cc2c(cc1-3)OCO2.[Cl-] [BERBERINE CHLORIDE] | Not Active
11 | O=C(O)CCNC(=O)c1ccccc1 [BETAMIPRON] | Not Active
12 | Cc1cc2c(OCC(CNC(C)(C)C)OC(=O)c3ccccc3)cccc2[nH]1 (configuration not stated) [BOPINDOLOL] | Not Active
13 | Brc1c(NC2=NCCN2)ccc2nccnc12 [BRIMONIDINE] | Not Active
14 | CN(C)[C@@H]1C(O)=C(C(N)=O)C(=O)[C@@]2(O)C(O)=C3C(=O)c4c(O)ccc(Cl)c4[C@@](C)(O)[C@H]3C[C@@H]12 [CHLORTETRACYCLINE] | Not Active

target: Melanocortin receptor 3 (Homo sapiens, UniProt P41968); type: cell membranes, HEK293, Membrane; conditions: hek293; further: in other assays of this panel Not Active means under 50% inhibition at 10 µM
Sequence (P41968 whole entry): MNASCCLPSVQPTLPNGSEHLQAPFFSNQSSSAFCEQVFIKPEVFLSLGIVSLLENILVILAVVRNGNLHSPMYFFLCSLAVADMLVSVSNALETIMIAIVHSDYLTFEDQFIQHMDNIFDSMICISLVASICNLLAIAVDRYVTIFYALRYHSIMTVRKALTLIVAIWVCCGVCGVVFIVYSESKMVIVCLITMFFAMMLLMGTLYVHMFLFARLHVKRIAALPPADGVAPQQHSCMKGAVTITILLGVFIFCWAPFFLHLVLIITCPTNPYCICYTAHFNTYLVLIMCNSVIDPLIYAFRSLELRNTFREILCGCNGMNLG

Row | Compound | IC50
15 | O=C1O[C@H]([C@@H](O)CO)C(O)=C1O [ASCORBIC ACID] | Not Active
16 | CC(C(=O)O)c1ccc2oc(-c3ccc(Cl)cc3)nc2c1 (configuration not stated) [BENOXAPROFEN] | Not Active
17 | COc1ccc2cc3[n+](cc2c1OC)CCc1cc2c(cc1-3)OCO2.[Cl-] [BERBERINE CHLORIDE] | Not Active
18 | O=C(O)CCNC(=O)c1ccccc1 [BETAMIPRON] | Not Active
19 | Cc1cc2c(OCC(CNC(C)(C)C)OC(=O)c3ccccc3)cccc2[nH]1 (configuration not stated) [BOPINDOLOL] | Not Active
20 | Brc1c(NC2=NCCN2)ccc2nccnc12 [BRIMONIDINE] | Not Active
21 | CN(C)[C@@H]1C(O)=C(C(N)=O)C(=O)[C@@]2(O)C(O)=C3C(=O)c4c(O)ccc(Cl)c4[C@@](C)(O)[C@H]3C[C@@H]12 [CHLORTETRACYCLINE] | Not Active

test system: not listed separately; assay: DRUGMATRIX: Phosphodiesterase PDE4 enzyme inhibition (substrate: [3H]cAMP + cAMP); conditions: u-937; Not Active = under 50% inhibition at 10 µM

Row | Compound | IC50 | Ki
22 | O=C1O[C@H]([C@@H](O)CO)C(O)=C1O [ASCORBIC ACID] | Not Active | Not Active
23 | CC(C(=O)O)c1ccc2oc(-c3ccc(Cl)cc3)nc2c1 (configuration not stated) [BENOXAPROFEN] | Not Active | Not Active
24 | COc1ccc2cc3[n+](cc2c1OC)CCc1cc2c(cc1-3)OCO2.[Cl-] [BERBERINE CHLORIDE] | Not Active | Not Active
25 | O=C(O)CCNC(=O)c1ccccc1 [BETAMIPRON] | Not Active | Not Active
26 | Cc1cc2c(OCC(CNC(C)(C)C)OC(=O)c3ccccc3)cccc2[nH]1 (configuration not stated) [BOPINDOLOL] | Not Active | Not Active
27 | Brc1c(NC2=NCCN2)ccc2nccnc12 [BRIMONIDINE] | Not Active | Not Active
28 | CN(C)[C@@H]1C(O)=C(C(N)=O)C(=O)[C@@]2(O)C(O)=C3C(=O)c4c(O)ccc(Cl)c4[C@@](C)(O)[C@H]3C[C@@H]12 [CHLORTETRACYCLINE] | Not Active | Not Active

target: Cytochrome P450 2C9 (Homo sapiens, UniProt P11712); conditions: bti-tn-5b1-4; further: in other assays of this panel Not Active means under 50% inhibition at 10 µM
Sequence (P11712 whole entry): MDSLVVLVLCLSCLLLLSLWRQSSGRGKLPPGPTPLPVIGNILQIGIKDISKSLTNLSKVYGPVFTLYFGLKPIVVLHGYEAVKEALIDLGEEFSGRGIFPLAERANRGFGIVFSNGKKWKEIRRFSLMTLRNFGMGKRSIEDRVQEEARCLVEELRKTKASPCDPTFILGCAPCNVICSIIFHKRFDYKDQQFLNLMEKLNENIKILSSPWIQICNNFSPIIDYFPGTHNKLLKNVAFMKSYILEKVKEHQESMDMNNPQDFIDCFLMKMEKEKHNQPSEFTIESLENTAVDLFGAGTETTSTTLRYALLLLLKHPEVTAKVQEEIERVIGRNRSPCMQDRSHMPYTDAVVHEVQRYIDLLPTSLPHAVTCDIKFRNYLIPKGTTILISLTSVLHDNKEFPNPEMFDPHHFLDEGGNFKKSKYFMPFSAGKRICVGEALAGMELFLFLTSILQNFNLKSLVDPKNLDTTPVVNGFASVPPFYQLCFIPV

Row | Compound | IC50 | Ki
29 | O=C1O[C@H]([C@@H](O)CO)C(O)=C1O [ASCORBIC ACID] | Not Active | Not Active
30 | CC(C(=O)O)c1ccc2oc(-c3ccc(Cl)cc3)nc2c1 (configuration not stated) [BENOXAPROFEN] | Not Active | Not Active
31 | COc1ccc2cc3[n+](cc2c1OC)CCc1cc2c(cc1-3)OCO2.[Cl-] [BERBERINE CHLORIDE] | Not Active | Not Active
32 | O=C(O)CCNC(=O)c1ccccc1 [BETAMIPRON] | Not Active | Not Active
33 | Cc1cc2c(OCC(CNC(C)(C)C)OC(=O)c3ccccc3)cccc2[nH]1 (configuration not stated) [BOPINDOLOL] | Not Active | Not Active
34 | Brc1c(NC2=NCCN2)ccc2nccnc12 [BRIMONIDINE] | Not Active | Not Active
35 | CN(C)[C@@H]1C(O)=C(C(N)=O)C(=O)[C@@]2(O)C(O)=C3C(=O)c4c(O)ccc(Cl)c4[C@@](C)(O)[C@H]3C[C@@H]12 [CHLORTETRACYCLINE] | Not Active | Not Active

test system: not listed separately; assay: DRUGMATRIX: ATPase, Na+/K+ enzyme inhibition (substrate: ATP); type: tissue-based, Sus scrofa, Heart; conditions: Not Active = under 50% inhibition at 10 µM

Row | Compound | IC50 | Ki
36 | O=C1O[C@H]([C@@H](O)CO)C(O)=C1O [ASCORBIC ACID] | Not Active | Not Active
37 | CC(C(=O)O)c1ccc2oc(-c3ccc(Cl)cc3)nc2c1 (configuration not stated) [BENOXAPROFEN] | Not Active | Not Active
38 | COc1ccc2cc3[n+](cc2c1OC)CCc1cc2c(cc1-3)OCO2.[Cl-] [BERBERINE CHLORIDE] | Not Active | Not Active
39 | O=C(O)CCNC(=O)c1ccccc1 [BETAMIPRON] | Not Active | Not Active
40 | Cc1cc2c(OCC(CNC(C)(C)C)OC(=O)c3ccccc3)cccc2[nH]1 (configuration not stated) [BOPINDOLOL] | Not Active | Not Active
41 | Brc1c(NC2=NCCN2)ccc2nccnc12 [BRIMONIDINE] | Not Active | Not Active
42 | CN(C)[C@@H]1C(O)=C(C(N)=O)C(=O)[C@@]2(O)C(O)=C3C(=O)c4c(O)ccc(Cl)c4[C@@](C)(O)[C@H]3C[C@@H]12 [CHLORTETRACYCLINE] | Not Active | Not Active

target: T2, Caspase-1 (Homo sapiens, UniProt P29466); design: species or system Escherichia coli; conditions: not given;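 further: Caspase-1 enzyme inhibition assay with a peptide substrate; in other assays of this panel Not Active means under 50% inhibition at 10 µM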
T2 sequence (P29466 whole entry): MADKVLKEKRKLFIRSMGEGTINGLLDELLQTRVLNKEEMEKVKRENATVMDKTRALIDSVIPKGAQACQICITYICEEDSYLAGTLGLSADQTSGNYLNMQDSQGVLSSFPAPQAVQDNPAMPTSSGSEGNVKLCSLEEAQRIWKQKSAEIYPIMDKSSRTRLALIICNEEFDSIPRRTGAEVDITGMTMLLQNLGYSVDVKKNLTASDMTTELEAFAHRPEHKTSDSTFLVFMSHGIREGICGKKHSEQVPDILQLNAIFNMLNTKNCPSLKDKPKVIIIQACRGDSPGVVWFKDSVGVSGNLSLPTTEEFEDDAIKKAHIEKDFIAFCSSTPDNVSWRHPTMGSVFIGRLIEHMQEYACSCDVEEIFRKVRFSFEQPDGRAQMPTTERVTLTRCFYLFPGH

Row | Compound | IC50
43 | O=C1O[C@H]([C@@H](O)CO)C(O)=C1O [ASCORBIC ACID] | Not Active
44 | CC(C(=O)O)c1ccc2oc(-c3ccc(Cl)cc3)nc2c1 (configuration not stated) [BENOXAPROFEN] | Not Active
45 | COc1ccc2cc3[n+](cc2c1OC)CCc1cc2c(cc1-3)OCO2.[Cl-] [BERBERINE CHLORIDE] | Not Active
46 | O=C(O)CCNC(=O)c1ccccc1 [BETAMIPRON] | Not Active
47 | Cc1cc2c(OCC(CNC(C)(C)C)OC(=O)c3ccccc3)cccc2[nH]1 (configuration not stated) [BOPINDOLOL] | Not Active
48 | Brc1c(NC2=NCCN2)ccc2nccnc12 [BRIMONIDINE] | Not Active
49 | CN(C)[C@@H]1C(O)=C(C(N)=O)C(=O)[C@@]2(O)C(O)=C3C(=O)c4c(O)ccc(Cl)c4[C@@](C)(O)[C@H]3C[C@@H]12 [CHLORTETRACYCLINE] | Not Active

target: T3, Amine oxidase [flavin-containing] A (Homo sapiens, UniProt P21397); assay: DRUGMATRIX: Monoamine Oxidase MAO-A enzyme inhibition (substrate: Kynuramine); design: species or system BTI-TN-5B1-4; conditions: bti-tn-5b1-4; Not Active = under 50% inhibition at 10 µM
T3 sequence (P21397 whole entry): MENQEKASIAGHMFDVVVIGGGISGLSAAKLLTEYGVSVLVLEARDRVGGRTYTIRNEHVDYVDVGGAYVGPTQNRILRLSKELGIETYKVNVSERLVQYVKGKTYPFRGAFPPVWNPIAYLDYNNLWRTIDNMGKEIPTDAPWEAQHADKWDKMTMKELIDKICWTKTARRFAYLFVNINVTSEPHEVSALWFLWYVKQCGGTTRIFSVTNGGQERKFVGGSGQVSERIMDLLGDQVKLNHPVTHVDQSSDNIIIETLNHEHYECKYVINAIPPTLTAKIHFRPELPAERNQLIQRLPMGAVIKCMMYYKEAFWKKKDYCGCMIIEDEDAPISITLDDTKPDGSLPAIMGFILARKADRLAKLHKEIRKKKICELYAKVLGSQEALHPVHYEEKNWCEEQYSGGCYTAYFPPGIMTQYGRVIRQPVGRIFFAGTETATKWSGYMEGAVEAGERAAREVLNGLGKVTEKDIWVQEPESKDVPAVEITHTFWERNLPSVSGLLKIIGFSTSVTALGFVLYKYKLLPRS

Row | Compound | IC50
50 | O=C1O[C@H]([C@@H](O)CO)C(O)=C1O [ASCORBIC ACID] | Not Active
51 | CC(C(=O)O)c1ccc2oc(-c3ccc(Cl)cc3)nc2c1 (configuration not stated) [BENOXAPROFEN] | Not Active
52 | COc1ccc2cc3[n+](cc2c1OC)CCc1cc2c(cc1-3)OCO2.[Cl-] [BERBERINE CHLORIDE] | Not Active
53 | O=C(O)CCNC(=O)c1ccccc1 [BETAMIPRON] | Not Active
54 | Cc1cc2c(OCC(CNC(C)(C)C)OC(=O)c3ccccc3)cccc2[nH]1 (configuration not stated) [BOPINDOLOL] | Not Active
55 | Brc1c(NC2=NCCN2)ccc2nccnc12 [BRIMONIDINE] | Not Active
56 | CN(C)[C@@H]1C(O)=C(C(N)=O)C(=O)[C@@]2(O)C(O)=C3C(=O)c4c(O)ccc(Cl)c4[C@@](C)(O)[C@H]3C[C@@H]12 [CHLORTETRACYCLINE] | Not Active
